Results: patent US20230136600A1, “Method and device for screening antigen epitope polypeptide” (priority 2020, published 2023)

Tested on: Balb/c mice
Experiment: Polypeptide chip-based vaccine immunogenicity scoring system
Assay type: in vivo
Set-up: key to A2: whether the 95 percentile of the last sampling is increased compared with the end point: Y = rise; N = no rise
Details: for A: 95 percentile grouping number score / B: Mouse performance score: total score = 5; for C1: #A timing-sequence response peptide fragment set / C2: #B vaccine specificity peptide fragment set / C3: Intersection of A and B / C4: Percentage of the intersection in set B / C: Timing-sequence response and specificity score: value of the whole mix
Protocol: Data distribution and characteristics thereof are analyzed based on a) and b), a polypeptide chip-based vaccine immunogenicity scoring system (referring to Table 7) is designed.
10 combinations are evaluated by the polypeptide chip-based vaccine immunogenicity scoring system. An evaluation method is consistent with that in Embodiment II. Evaluation results are show in the table below.
This embodiment is consistent with Embodiment II. Each combination is evaluated by the polypeptide chip-based vaccine immunogenicity scoring system. Evaluation results are show in the table below.

[1] = Embodiment III, polypeptide-KLH
[2] = Embodiment III, polypeptide-KLH, Mix1-10
[3] = Embodiment III, polypeptide-KLH, A*3 + B*2 + C*1
[4] = adjuvant AddaVax, 7 peptides co-immunized in mice
[5] = adjuvant Adju-Phos, 7 peptides co-immunized in mice
[6] = adjuvant Alhydrogel, 7 peptides co-immunized in mice
[7] = adjuvant Imjet Alumn, 7 peptides co-immunized in mice
[8] = adjuvant MA103A, 7 peptides co-immunized in mice
[9] = adjuvant MA103B, 7 peptides co-immunized in mice

## LQDLKWARFPKS [SEQ ID NO:29]
[1]
  B1: D 0-D 14 95 percentile rise in the number of mice: 3
  B2: D 0-D 21 95 percentile rise in the number of mice: 3
  B3: D 14-D 21 95 percentile rise in the number of mice: 2
  B4: D 21-D 28 95 percentile rise in the number of mice: 0
  A: 95 percentile grouping number score: 4
  B: Mouse performance score: 1.9
  C1: #A timing-sequence response peptide fragment set: 257
  C2: #B vaccine specificity peptide fragment set: 682
  C3: Intersection of A and B: 3
  C4: Percentage of the intersection in set B: 0.440
  C: Timing-sequence response and specificity score: 0.5
[2]
  A1: difference between a highest median and a D 0 median (95 percentile): 0.10
  A2: whether the 95 percentile of the last sampling is increased compared with the end point: N
[3]
  Total single peptide: 16.3
[4]
  1) 95 percentile grouping number A: 4
  1) 95 percentile grouping number A1: 0.055
  2) Mouse performance B: 3.5
  2) Mouse performance B1: 3
  2) Mouse performance B2: 5
  2) Mouse performance B3: 4
  3) Timing-sequence response and specificity C: 0
  3) Timing-sequence response and specificity C1: 237
  3) Timing-sequence response and specificity C2: 1244
  3) Timing-sequence response and specificity C3: 0
  3) Timing-sequence response and specificity C4: 0.000
  Total single peptide: 19
[5]
  1) 95 percentile grouping number A: 3.5
  1) 95 percentile grouping number A1: 0.055
  2) Mouse performance B: 1.9
  2) Mouse performance B1: 3
  2) Mouse performance B2: 3
  2) Mouse performance B3: 1
  3) Timing-sequence response and specificity C: 0
  3) Timing-sequence response and specificity C1: 203
  3) Timing-sequence response and specificity C2: 1244
  3) Timing-sequence response and specificity C3: 0
  3) Timing-sequence response and specificity C4: 0.000
  Total single peptide: 14.3
[6]
  1) 95 percentile grouping number A: 3
  1) 95 percentile grouping number A1: 0.04
  2) Mouse performance B: 1.9
  2) Mouse performance B1: 5
  2) Mouse performance B2: 2
  2) Mouse performance B3: 0
  3) Timing-sequence response and specificity C: 1
  3) Timing-sequence response and specificity C1: 123
  3) Timing-sequence response and specificity C2: 1244
  3) Timing-sequence response and specificity C3: 2
  3) Timing-sequence response and specificity C4: 0.161
  Total single peptide: 13.3
[7]
  1) 95 percentile grouping number A: 5
  1) 95 percentile grouping number A1: 0.08
  2) Mouse performance B: 2.5
  2) Mouse performance B1: 5
  2) Mouse performance B2: 3
  2) Mouse performance B3: 1
  3) Timing-sequence response and specificity C: 1
  3) Timing-sequence response and specificity C1: 100
  3) Timing-sequence response and specificity C2: 1244
  3) Timing-sequence response and specificity C3: 3
  3) Timing-sequence response and specificity C4: 0.241
  Total single peptide: 20.5
[8]
  1) 95 percentile grouping number A: 5
  1) 95 percentile grouping number A1: 0.08
  2) Mouse performance B: 2.9
  2) Mouse performance B1: 5
  2) Mouse performance B2: 5
  2) Mouse performance B3: 1
  3) Timing-sequence response and specificity C: 1
  3) Timing-sequence response and specificity C1: 260
  3) Timing-sequence response and specificity C2: 1244
  3) Timing-sequence response and specificity C3: 3
  3) Timing-sequence response and specificity C4: 0.241
  Total single peptide: 21.3
[9]
  1) 95 percentile grouping number A: 4.5
  1) 95 percentile grouping number A1: 0.065
  2) Mouse performance B: 3.7
  2) Mouse performance B1: 5
  2) Mouse performance B2: 5
  2) Mouse performance B3: 3
  3) Timing-sequence response and specificity C: 0
  3) Timing-sequence response and specificity C1: 153
  3) Timing-sequence response and specificity C2: 1244
  3) Timing-sequence response and specificity C3: 0
  3) Timing-sequence response and specificity C4: 0.000
  Total single peptide: 20.9

## MADSNGTIT (SARS-CoV-2) [SEQ ID NO:16]
Embodiment II, Combination 2
  A2: whether the 95 percentile of the last sampling is increased compared with the end point: Y
  B1: D 0-D 14 95 percentile rise in the number of mice: 5
  B2: D 0-D 21 95 percentile rise in the number of mice: 1
  B3: D 14-D 21 95 percentile rise in the number of mice: 0
  B4: D 21-D 28 95 percentile rise in the number of mice: 2
  A: 95 percentile grouping number score: 5
  B: Mouse performance score: 2.2
Embodiment II, Combination 2, A*3 + B*2 + C*1
  Total single peptide: 19.9
Embodiment II, mice immunized with Combination 2
  A1: difference between a highest median and a D 0 median (95 percentile): 0.2
[1]
  B1: D 0-D 14 95 percentile rise in the number of mice: 3
  B2: D 0-D 21 95 percentile rise in the number of mice: 3
  B3: D 14-D 21 95 percentile rise in the number of mice: 1
  B4: D 21-D 28 95 percentile rise in the number of mice: 2
  A: 95 percentile grouping number score: 3.5
  B: Mouse performance score: 2.1
  C1: #A timing-sequence response peptide fragment set: 511
  C2: #B vaccine specificity peptide fragment set: 364
  C3: Intersection of A and B: 1
  C4: Percentage of the intersection in set B: 0.275
  C: Timing-sequence response and specificity score: 0.5
[2]
  A1: difference between a highest median and a D 0 median (95 percentile): 0.08
  A2: whether the 95 percentile of the last sampling is increased compared with the end point: Y
[3]
  Total single peptide: 15.2

## NLDSKVGGNYNY [SEQ ID NO:15]
[1]
  B1: D 0-D 14 95 percentile rise in the number of mice: 3
  B2: D 0-D 21 95 percentile rise in the number of mice: 3
  B3: D 14-D 21 95 percentile rise in the number of mice: 1
  B4: D 21-D 28 95 percentile rise in the number of mice: 0
  A: 95 percentile grouping number score: 4.5
  B: Mouse performance score: 1.7
  C1: #A timing-sequence response peptide fragment set: 257
  C2: #B vaccine specificity peptide fragment set: 682
  C3: Intersection of A and B: 3
  C4: Percentage of the intersection in set B: 0.440
  C: Timing-sequence response and specificity score: 0.5
[2]
  A1: difference between a highest median and a D 0 median (95 percentile): 0.15
  A2: whether the 95 percentile of the last sampling is increased compared with the end point: N
[3]
  Total single peptide: 17.4
